The values that follow are results of earlier work, collected in US5348946A, “Heteroanthracycline antitumor analogs” (Biochem Immunosystems, Inc., priority 1991, dated 1994).

SMILES strings stand for the structures.

The conditions of the data set: compared with daunorubicin and doxorubicin; cited from earlier work.
`CC(=O)[C@@H]1Cc2c(c(O)c3oc4ccccc4c(=O)c3c2O)[C@@H](O[C@H]2C[C@H](N)[C@H](O)[C@H](C)O2)C1` [Compound 3]: the antileukemic activity entry was “antileukemic activity, but lower than that of the parent antibiotics daunorubicin and doxorubicin”.
Take `CC(=O)[C@]1(O)Cc2c(c(O)c3oc4ccccc4c(=O)c3c2O)[C@@H](O[C@H]2C[C@H](N)[C@H](O)[C@H](C)O2)C1` [Compound 4]: the antileukemic activity entry is “antileukemic activity, but lower than that of the parent antibiotics daunorubicin and doxorubicin”.
Turning to `CC(=O)[C@]1(O)Cc2c(c(O)c3oc4ccccc4c(=O)c3c2O)[C@@H](O[C@H]2C[C@H](NC(=O)C(F)(F)F)[C@H](O)[C@H](C)O2)C1` [Compound 5], the antileukemic activity result is “antileukemic activity, but lower than that of the parent antibiotics daunorubicin and doxorubicin”.
